# Measurements published in paper PMC7187754, “Identification of the Molecular Determinants Involved in Antimicrobial Activity of Pseudodesmin A, a Cyclic Lipopeptide From the Viscosin Group” (Frontiers in Microbiology, 2020).
# Like-named read-outs stand apart in the source and are kept apart here.
# Experiments:
# [1] = tested on: Enterococcus faecalis LMG 8222; assay: Broth microdilution antimicrobial assay (MIC1/2); assay type: cell-based
# [2] = tested on: Enterococcus faecium LMG 9431; assay: Broth microdilution antimicrobial assay (MIC1/2); assay type: cell-based
# [3] = tested on: Staphylococcus aureus LMG 10147; assay: Broth microdilution antimicrobial assay (MIC1/2); assay type: cell-based
# [4] = tested on: Clostridium perfringens NCTC 8798; assay type: cell-based
# [5] = tested on: Streptococcus pneumoniae LMG 21598; assay: Broth microdilution antimicrobial assay (MIC1/2); assay type: cell-based
# [6] = tested on: Streptococcus pyogenes LMG 15868; assay: Broth microdilution antimicrobial assay (MIC1/2); assay type: cell-based
# [7] = RP-HPLC retention time as measure of overall hydrophobicity; assay type: physicochemical; conditions: chromatographic, RP-HPLC (LC-MS system: Kinetex C18, 150 mm × 4.60 mm, 5 μm, 1.5 ml/min; gradient not stated at this place)
# Protocol: Chemicals and general procedures are listed in the Supplementary Materials section. All procedures for the synthesis and purification of specific building blocks as well as solid-phase peptide synthesis, and cyclization release of the PsdA-analogs were carried out as described previously for the total synthesis of pseudodesmin A (1) and its enantiomer (2) ([De Vleeschouwer et al., 2014]). Practical details and relevant variations of the procedures for specific cases are collected in the Supplementary Materials section of this paper, together with full characterization of all fatty acid building blocks and analogs. The crude cyclic lipopeptides were purified using either semi-preparative or preparative RP-HPLC. Semi-preparative purification was performed on an Agilent 1100 series instrument using a Kromasil column (C18, 250 mm × 7.8 mm, 5 μm particle size). The analyses were executed with a flow rate of 3 ml/min and with the following solvent systems: H2O containing 0.1% HCOOH (A) and CH3CN (B). […] High-resolution mass spectra were recorded on an Agilent 6220A time-of-flight mass spectrometer, equipped with an Agilent ESI/APCI multimode source. […]
# [8] = fluorescence permeability assays, model membranes, natural compounds; ref Geudens et al., 2017; cited from earlier work
# From the text: We have previously reported the three-dimensional structure of the 2 neutral subgroup representatives, viscosinamide A (D^0) ([Geudens et al., 2014]) and pseudodesmin A (L^0) ([Sinnaeve et al., 2009a], [b]), while that of anionic WLIP (D^–) was already available from literature ([Han et al., 1992]). To avoid ambiguity, the three-dimensional structure is referred to hereafter as the ‘fold’ of a Ps-CLiP whereas the chemical (covalent) structure will simply be referred to as ‘structure’ as indicated in Figure 1C. In spite of the D/L switch in stereochemistry for Leu5, all have identical backbone ...
# [9] = minimal concentration inhibiting growth by at least 50% vs untreated control, broth microdilution (CLSI), 0.016-32 μg/ml twofold dilutions, ~5 × 10^5 CFU/ml, 37°C, 24 h, OD 590 nm
# [10] = minimal concentration inhibiting growth by at least 50% vs untreated control, broth microdilution (CLSI), Reinforced Clostridial Medium, 0.016-32 μg/ml twofold dilutions, ~5 × 10^5 CFU/ml, 37°C, 24 h, OD 590 nm
Molecule,MIC1/2 E. faecalis LMG 8222 [1] [µg/mL],MIC1/2 E. faecium LMG 9431 [2] [µg/mL],MIC1/2 S. aureus LMG 10147 [3] [µg/mL],MIC1/2 C. perfringens NCTC 8798 [4] [µg/mL],MIC1/2 S. pneumoniae LMG 21598 [5] [µg/mL],MIC1/2 S. pyogenes LMG 15868 [6] [µg/mL],"MIC1/2 E. faecalis LMG 8222 [1, 9] [µg/mL]","MIC1/2 E. faecium LMG 9431 [2, 9] [µg/mL]","MIC1/2 C. perfringens NCTC 8798 [4, 10] [µg/mL]","MIC1/2 S. pneumoniae LMG 21598 [5, 9] [µg/mL]","MIC1/2 S. pyogenes LMG 15868 [6, 9] [µg/mL]","MIC1/2 S. aureus LMG 10147 [3, 9] [µg/mL]",HPLC retention time (overall hydrophobicity) [7] [min],C1/2 of membrane permeabilization [8] [µM]
CN[C@H](CC(C)C)C(=O)N[C@H]1C(=O)N[C@@H](CC(N)=O)C(=O)N[C@H]2C(=O)N[C@H]3C(=O)N[C@H](C(=O)N[C@H](C(=O)O)c4cc(O)cc(O)c4-c4cc3ccc4O)[C@H](O)c3ccc(c(Cl)c3)Oc3cc2cc(c3O[C@@H]2O[C@H](CO)[C@@H](O)[C@H](O)[C@H]2O[C@H]2C[C@](C)(N)[C@H](O)[C@H](C)O2)Oc2ccc(cc2Cl)[C@H]1O [Vancomycin],4,1,2,0.25,0.25,0.5,,,,,,,,
Daptomycin,,,,,,,>32,16,8,4,2,,,
Pseudodesmin A [compound 1],,,,,,,4,4,2,2,1,4,7.4,~3.7
viscosin,,,,,,,,,,,,,,~4.9
